Tests used:
[1] = in water; active material for positive half-cell of a flow battery; cited from earlier work
[2] = Aqueous solubility (Table 1 comparison of positive half-cell active materials); conditions: effective concentration of transferrable electrons (solubility x electrons transferred)

Fe(CN)6^3−^/4−
Aqueous Solubility [1]: 1300 to 1600 mM | Electron Aqueous Solubility [2]: 1300 to 1600 mM
